Data taken from patent US20110294794A1, “TREATMENT OF PROTEINOPATHIES USING A FARNESYL TRANSFERASE INHIBITOR” (Link Medicine Corporation, priority 2008, published 2011).
Entries after “also recorded” stand apart in the source; their conditions may differ.

Columns and labels:
[1] = test system: Atg1; experiment: mRNA levels of autophagy-related genes (Atg1) in SH-SY5Y cells; type: cell-based, human; conditions: 100 nM (FIG. 8d)
Method: Quantitative real-time PCR: Gene expression profiles were done by qPCR on series of known autophagy genes. RNA was extracted with Tri-reagent (Sigma), and cDNAs generated using iScript (Biorad). qPCR analysis was carried out in a 96 well plate using an iCycler (BioRad, Hercules, Calif.), and iQ SYBR Green Supermix (Biorad) according to the manufacturer's specifications.
The mechanism of autophagy stimulation by LNK-754-TS appears distinct from that of the drug rapamycin. Rapamycin is a well-characterized autophagy stimulator that acts through inhibition of mTOR, a kinase involved in nutrient signaling and regulation of cell growth and survival. […] To further contrast the mechanism of autophagy stimulation by LNK-754-TS to that of rapamycin, a collection of mRNA transcripts of autophagy proteins were measured (FIG. 8d). Selected mRNAs from untreated SH-SY5Y cells were compared to mRNAs from cells treated with LNK-754-TS (100 nM), tipifarnib (100 nM), or rapamycin (1 μM).

[2] = test system: TAU441 transgenic mice; experiment: Porsolt forced swim task in TAU441 transgenic mice; type: in vivo, mouse
Text: Tests relevant to depression-like behaviors in rodents are primarily stress-induced reductions in avoidance or escape, termed behavioral despair. One of the most widely used animal tests for depression is the Porsolt forced swim task (Porsolt et al., Arch. Int. Pharmacodyn. Ther. 229(2):327-36, 1977; Porsolt et al., Eur. J. Pharmacol. 47(4):379-91, 1978). This study was designed to evaluate the effects of treatment with LNK-754 on behavior of TAU441 transgenic mice. At start of the treatment, the animals were 5 months old. Untreated non-transgenic animals of the same age were tested and sacrificed serving as the baseline group. Mice received vehicle or LNK-754-TS at a dose of 0.09 mg per kg, 7 days a week for 90 days. In the last week of the treatment period and before sacrifice, mice were evaluated using the Porsolt forced swim task (FIG. 10B).

[3] = test system: Aβ; experiment: Aβ pathology in APP/PS1 transgenic mice (6E10, Thioflavin-S, ELISA); type: in vivo, mouse; conditions: 0.9 mg/kg once every 24 hr, two months
Text: Immunohistochemistry and quantification of stained cells: For evaluation of α-synuclein immunoreactivity (IR), 5 sagittal cryo-cut sections (10 μm slice thickness) from five different layers were used for counting of IR cells in the cortex and hippocampus. Brain sections were stained with a monoclonal human α-synuclein specific antibody (Alexis®; Cat# 804-258-L001; dilution 1:5), followed by a secondary Ab Cy 2-Goat Anti-Rat (Jackson ImmunoResearch®; dilution 1:200). IR positive cells were quantified using specialized image analysis software (Image Pro Plus, version 4.5.1.29). […] Images were evaluated with ImageProPlus (version 6.2) image analysis software. For APP/PS1 transgenic animals sagittal hemisections (40 μm) were collected and processed for Aβ immunohistochemistry using an 6E10 antibody, Thioflavin-S staining Primary antibodies were detected by the ABC method.
ELISA quantification of α-Synuclein in the α-Synuclein transgenic animals: Brain homogenate was centrifuged and the supernatant saved as fraction F1. […] Raw absorbance (405 nm) was then normalized to the total protein concentration of each sample. […] To quantify the amount of human Aβ-40 and Aβ-42, ELISA kits were used (The Genetics Company, Zurich, Switzerland). […]

[4] = test system: aged non-transgenic rats; experiment: Morris water maze in aged non-transgenic rats; type: in vivo, rat; conditions: aged rats (22 months old), 0.3 mg/kg and 0.9 mg/kg once every 24 hours
Text: Morris water maze (MWM) analysis of cognitive performance: In APP/PS1 transgenic animals, swimming behavior in a Morris Water Maze was videotaped and analyzed (Ethovision, Noldus, Wageningen, Netherlands). For mice, a place navigation test was used to locate the hidden platform in five blocks of three trials over three consecutive days. Each trial consists of a forced swim test of maximum 120 seconds, followed by 60 seconds of rest. The time each mouse needed for location of the platform was measured. For rats, a cued learning phase was first conducted, consisting of 3 trials per day for 5 days, using a visible platform of varying location. Each trial consisted of a forced swim test of maximum 60 seconds, followed by 10 minutes of rest. The time and path length each rat needed to locate the platform was measured.
In order to rule out the possibility that the rapid observed improvement in cognition described above arose from an alternative, transgene-independent mechanism, aged non-transgenic rats (22 months old) were treated with LNK-754-TS (0.3 mg/kg and 0.9 mg/kg, once every 24 hours) and their cognitive performance was measured by MWM and compared to that of younger rats (3 months old) of the same strain.

[5] = test system: Aβ; experiment: h-APPsl transgenic mouse, Aβ immunoreactivity and extracted Aβ; type: in vivo; conditions: 0.9 mg/kg once every 24 hr, three months
[6] = 0.09 mg/kg once every 24 hr, 90 days

Q: For `C#Cc1cccc(-c2cc(=O)n(C)c3ccc([C@](O)(c4ccc(Cl)cc4)c4cncn4C)cc23)c1` [LNK-754-TS, (R)-6-[(4-chlorophenyl)-hydroxyl-(1-methyl-1-H-imidazol-5-yl)-methyl]-4-(3-ethynylphenyl)-1-methyl-2-(1H)-quinonlinone (2S,3S)-dihydroxybutanedioate], which “mRNA levels of a set of autophagy-related genes” value [1] is on record?
A: unaffected

Q: What about the depressed phenotype ([2]; 0.09 mg/kg once every 24 hours) of the same molecule?
A: significantly ameliorated

Q: And the “floating behavior vs. vehicle” value [2, 6]?
A: significantly less; also recorded: decreasing; also recorded: decreased

Q: And the “forced swim behavior compared with non-transgenic mice” value [2, 6]?
A: behaved similar to non-transgenic mice; also recorded: behaved similarly to non-tg mice; also recorded: levels equivalent to that seen in non-transgenic mice

Q: And the “struggling behavior vs. vehicle” value [2, 6]?
A: higher percentage; also recorded: increasing; also recorded: significantly increased

Q: And the “levels of Aβ40/Aβ42 extracted from whole brain fractions (Elisa)” value [3]?
A: no statistically significant changes

Q: And the “number of Aβ (6E10) immunoreactive plaques in the subiculum vs. vehicle” value [3]?
A: lesser, but still significant, effect; also recorded: significant decrease

Q: And the “cognitive performance (place learning curves, probe tests)” value [4]?
A: no significant cognitive improvement

Q: What about the “cortical Aβ immunoreactivity and Aβ extracted in the insoluble fractions” value [5] of the same molecule?
A: did not significantly reduce
